In patent US20250099420A1, “SMALL MOLECULE MODULATORS OF GPR139 COMPLEX” (University of Florida Research Foundation, Incorporated, priority 2022, published 2025):
Where two headings read alike, the source gives them in different places.

Experiments:
parental HEK cells = experiment: HEK parental Agonist Counterscreen Assay (non-transfected cells); assay type: cell-based; conditions: for Averaged Max % Response (±St. Dev.): activity relative to known control
From the text: The high control for the agonist counterscreen was Forskolin not acetylcholine.

GPR139 = biological target: T1, GPR139 (Homo sapiens, UniProt Q6DWJ6); experiment: GPR139 Agonist titration / agonist counterscreen assay (calcium detection, HEK-GPR139 cells); assay type: cell-based; design: expressed in transfected cells; host or cells: HEK Aequorin cells, Maxcyte transient transfection; conditions: GPR139 Agonist Activity; for Averaged Max % Response (±St. Dev.): activity relative to known control; for EC50: read-out: EC50
T1 sequence (Q6DWJ6 1-353): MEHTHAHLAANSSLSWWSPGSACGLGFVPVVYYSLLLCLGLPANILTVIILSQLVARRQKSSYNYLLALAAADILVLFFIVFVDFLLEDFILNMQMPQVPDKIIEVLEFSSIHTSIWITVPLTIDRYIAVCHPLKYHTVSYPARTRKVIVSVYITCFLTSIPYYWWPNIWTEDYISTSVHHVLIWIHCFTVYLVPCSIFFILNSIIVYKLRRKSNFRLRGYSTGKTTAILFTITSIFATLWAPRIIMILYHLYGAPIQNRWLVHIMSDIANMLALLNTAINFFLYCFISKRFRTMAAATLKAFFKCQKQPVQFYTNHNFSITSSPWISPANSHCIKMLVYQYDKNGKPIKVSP
Method: GPR activity was assessed using a calcium detection assay. […] Negative control samples were treated with DMSO. […] Intracellular calcium was measured using Calcium 5.

[1] = Homo sapiens, HEK293, HEK Agonist Activity section of Table 4 (parental HEK counterscreen)
[2] = values printed in E-notation without unit

SMILES | Lipophilic Efficiency (logD) (parental HEK cells; HEK Agonist Activity section) | Lipophilic Efficiency (logP) (parental HEK cells; HEK Agonist Activity section) | Averaged Max % Response (±St. Dev.) (parental HEK cells; HEK Agonist Activity section) | EC50 (parental HEK cells; [1]) | Averaged Max % Response (±St. Dev.) (GPR139) | Lipophilic Efficiency (logD) (GPR139; based on logD) | Lipophilic Efficiency (logP) (GPR139; based on logP) | Hill Slope (GPR139; fitted dose-response curve) | Efficiency Ligand (GPR139; ligand efficiency) | EC50 (GPR139; [2]) | Efficiency Ligand (GPR139) | Hill Slope (GPR139) | Lipophilic Efficiency (logD) (GPR139) | Lipophilic Efficiency (logP) (GPR139) | EC50 (GPR139; HEK-GPR139 cells) | also measured
O=C(CCC1CCCC1)NNC(=O)CSc1ccc(Cl)cc1 [SR-01000069439] | 1.55 | 1.55 | 1.51 ± 2.29% | > 14900 nM | 123.43 ± 12.00% | 3.93 | 3.93 | 0.62 | 0.46 | 61.7 nM |  |  |  |  |  | 
O=C(Cc1cccc2ccccc12)NCC(=O)NNC(=O)c1ccco1 [SR-01000069451] | 3.83 | 3.83 | 25.95 ± 1.00% | > 14400 nM | 95.18 ± 9.10% | 6.21 | 6.20 | 1.06 | 0.39 | 60.5 nM |  |  |  |  |  | 
COc1ccccc1CC1(C)NC(=O)N(CC(=O)NC(C)c2cccc(Cl)c2)C1=O (stereo not drawn) [SR-01000069564] |  |  |  |  | 87.90 ± 18.60% | 4.85 | 4.85 | 0.93 | 0.36 | 17.2 nM |  |  |  |  |  | Lipophilic Efficiency (logD) (parental HEK cells; HEK Agonist Activity): 1.93; Lipophilic Efficiency (logP) (parental HEK cells; HEK Agonist Activity): 1.93; Averaged Max % Response (±St. Dev.) (parental HEK cells; HEK Agonist Activity): −3.54 ± 8.88%; EC50 (parental HEK cells; HEK Agonist Activity, parental non-transfected HEK cells): > 14400 nM
O=C(CCc1nc2ccccc2s1)NNC(=O)CSc1ccccc1F [SR-01000069574] | 2.04 | 2.04 | 7.10 ± 4.83% | > 14500 nM | 93.05 ± 4.55% |  |  |  |  |  | 0.35 | 0.94 | 3.68 | 3.67 | 339 nM | 
Cc1ccc(C)c(C(=O)CCC(=O)NNC(=O)c2cc(C)oc2C)c1 [SR-01000069642] |  |  |  |  | 100.05 ± 4.70% | 4.99 | 4.99 | 0.80 | 0.41 | 43.1 nM |  |  |  |  |  | Lipophilic Efficiency (logD) (parental HEK cells; HEK Agonist Activity): 2.45; Lipophilic Efficiency (logP) (parental HEK cells; HEK Agonist Activity): 2.45; Averaged Max % Response (±St. Dev.) (parental HEK cells; HEK Agonist Activity): 8.55 ± 4.45%; EC50 (parental HEK cells; Homo sapiens, HEK293, HEK Agonist Activity, parental non-transfected HEK cells): > 14800 nM
O=C(CN1C(=O)NC2(CCc3ccccc32)C1=O)Nc1cccc(Cl)c1 (stereo not drawn) [SR-01000069699] | 2.03 | 2.03 | 12.32 ± 5.16% | > 15200 nM | 116.05 ± 3.28% | 4.18 | 4.18 | 0.54 | 0.38 | 108 nM |  |  |  |  |  | 
COc1cc(C(=O)NNC(=O)CSc2ccc(C)cc2)cc(OC)c1C [SR-01000070170] | 1.89 | 1.89 | 6.82 ± 9.60% | > 15000 nM | 98.34 ± 1.36% |  |  |  |  |  | 0.34 | 0.96 | 3.40 | 3.40 | 462 nM | 
Cc1ccccc1SCC(=O)NNC(=O)C1CCCCC1 [SR-01000070173] | 1.83 | 1.83 | 7.45 ± 6.67% | > 14700 nM | 99.23 ± 7.18% |  |  |  |  |  | 0.42 | 0.62 | 3.30 | 3.30 | 507 nM | 
Cc1ccc2c(c1)CCCN2CC(=O)N(C)c1c(N)n(Cc2ccccc2)c(=O)[nH]c1=O [SR-01000070509] | 2.32 | 2.31 | 15.75 ± 7.96% |  | 96.94 ± 14.18% | 4.29 | 4.29 | 0.89 | 0.30 | 153 nM |  |  |  |  |  | EC50 (parental HEK cells; HEK Agonist Activity section of Table 4 (parental HEK counterscreen)): > 14300 nM
